{"source": "patent US10377753B2", "about": "“Substituted 4-azaindoles and their use as GluN2B receptor modulators” (Janssen Pharmaceutica NV, priority 2015, dated 2019)", "note": "Counter-ions that a name gives are not always drawn."}
{"molecular_target": "cloned human NR1/NR2B ion channels (Homo sapiens (Human), UniProt Q05586+Q13224)", "sequence (Q13224 27-1484, other chains not shown)": "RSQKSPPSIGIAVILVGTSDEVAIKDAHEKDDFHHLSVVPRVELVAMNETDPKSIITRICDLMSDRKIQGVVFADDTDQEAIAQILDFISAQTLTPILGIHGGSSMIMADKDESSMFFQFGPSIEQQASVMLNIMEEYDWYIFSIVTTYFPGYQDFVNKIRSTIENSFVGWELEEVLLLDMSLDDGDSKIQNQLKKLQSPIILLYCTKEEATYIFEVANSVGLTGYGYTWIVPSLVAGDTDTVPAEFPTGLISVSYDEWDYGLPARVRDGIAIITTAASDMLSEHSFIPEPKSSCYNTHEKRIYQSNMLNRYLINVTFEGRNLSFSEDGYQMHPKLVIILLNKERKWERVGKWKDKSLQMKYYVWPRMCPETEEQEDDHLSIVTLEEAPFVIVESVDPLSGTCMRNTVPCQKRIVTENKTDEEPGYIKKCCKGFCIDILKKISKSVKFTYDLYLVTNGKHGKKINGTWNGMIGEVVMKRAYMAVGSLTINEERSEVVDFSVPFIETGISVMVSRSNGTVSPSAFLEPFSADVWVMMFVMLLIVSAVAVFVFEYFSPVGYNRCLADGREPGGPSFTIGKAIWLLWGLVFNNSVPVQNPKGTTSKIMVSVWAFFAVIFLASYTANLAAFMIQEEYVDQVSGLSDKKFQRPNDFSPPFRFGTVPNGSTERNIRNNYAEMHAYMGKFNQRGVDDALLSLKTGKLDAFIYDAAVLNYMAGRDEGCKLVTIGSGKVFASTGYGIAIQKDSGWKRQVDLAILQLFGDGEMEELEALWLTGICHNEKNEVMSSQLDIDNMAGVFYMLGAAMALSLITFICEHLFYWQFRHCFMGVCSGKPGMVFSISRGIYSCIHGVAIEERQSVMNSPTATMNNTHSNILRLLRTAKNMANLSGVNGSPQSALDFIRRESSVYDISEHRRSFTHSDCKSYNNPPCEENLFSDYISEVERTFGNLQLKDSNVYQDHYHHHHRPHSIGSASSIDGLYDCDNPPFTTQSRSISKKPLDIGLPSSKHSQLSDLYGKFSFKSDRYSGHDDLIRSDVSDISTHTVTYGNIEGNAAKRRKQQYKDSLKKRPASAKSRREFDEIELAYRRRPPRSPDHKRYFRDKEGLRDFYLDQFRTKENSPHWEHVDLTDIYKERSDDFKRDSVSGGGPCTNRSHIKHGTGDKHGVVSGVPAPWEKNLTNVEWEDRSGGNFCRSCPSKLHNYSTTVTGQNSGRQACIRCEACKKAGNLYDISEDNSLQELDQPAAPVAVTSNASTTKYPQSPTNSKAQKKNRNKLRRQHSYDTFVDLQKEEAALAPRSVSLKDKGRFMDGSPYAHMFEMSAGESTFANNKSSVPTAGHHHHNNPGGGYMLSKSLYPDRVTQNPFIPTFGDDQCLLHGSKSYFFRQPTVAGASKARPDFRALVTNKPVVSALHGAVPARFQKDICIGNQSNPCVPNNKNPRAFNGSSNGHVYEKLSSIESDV", "test": "HNR2BC: effects of test articles on cloned human NR1/NR2B ion channels expressed in mammalian cells (FLIPR calcium flux)", "format": "cell-based", "conditions": "cloned human NR1/NR2B, Table 5", "in_short": "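Compounds were added to dye-loaded cells for 5 min with fluorescence monitored for agonism, followed by co-agonists (glutamate ~EC80, glycine 10 μM saturating) for 5 min. Cells stably expressed inducible human NR1/NR2B, and the buffer was pH 7.4. The FLIPR Ca2+ flux signal was normalized against control wells.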", "units": {"IC50": "nM"}}
{"smiles": "Cc1cc(-c2cnc3c(Cl)cn(Cc4cnn(C)c4)c3c2)ccc1F", "note": "[Example 240, 3-Chloro-6-(4-fluoro-3-methyl-phenyl)-1-[(1-methylpyrazol-4-yl)methyl]pyrrolo[3,2-b]pyridine]", "IC50": 501}
{"smiles": "Cc1cc(-c2cnc3c(Cl)cn(CC(=O)C4CCC4)c3c2)ccc1F", "note": "[Example 241, 2-[3-Chloro-6-(4-fluoro-3-methyl-phenyl)pyrrolo[3,2-b]pyridin-1-yl]-1-cyclobutyl-ethanone]", "IC50": 5010}
{"smiles": "Cc1cc(-c2cnc3ccn(CC(=O)C4CCC4)c3c2)ccc1F", "note": "[Example 242, 1-Cyclobutyl-2-[6-(4-fluoro-3-methyl-phenyl)pyrrolo[3,2-b]pyridin-1-yl]ethanone]", "IC50": 794}
{"smiles": "O=C(Cn1cc(Cl)c2ncc(-c3cncc(C(F)(F)F)c3)cc21)N1CCC1", "note": "[Example 243, 1-(Azetidin-1-yl)-2-[3-chloro-6-[5-(trifluoromethyl)-3-pyridyl]pyrrolo[3,2-b]pyridin-1-yl]ethanone trifluoroacetate salt]", "IC50": 100}
{"smiles": "O=C(Cn1cc(Cl)c2ncc(-c3cncc(C(F)(F)F)c3)cc21)NC1CC1", "note": "[Example 244, 2-[3-Chloro-6-[5-(trifluoromethyl)-3-pyridyl]pyrrolo[3,2-b]pyridin-1-yl]-N-cyclopropyl-acetamide trifluoroacetate salt]", "IC50": 631}
{"smiles": "O=C(Cn1cc(Cl)c2ncc(-c3cccc(C(F)(F)F)n3)cc21)N1CCC1", "note": "[Example 245, 1-(Azetidin-1-yl)-2-[3-chloro-6-[6-(trifluoromethyl)-2-pyridyl]pyrrolo[3,2-b]pyridin-1-yl]ethanone]", "IC50": 398}
{"smiles": "O=C(Cn1cc(Cl)c2ncc(-c3cccc(C(F)(F)F)n3)cc21)NC1CC1", "note": "[Example 246, 2-[3-Chloro-6-[6-(trifluoromethyl)-2-pyridyl]pyrrolo[3,2-b]pyridin-1-yl]-N-cyclopropyl-acetamide]", "IC50": 100}
{"smiles": "O=C(Cn1cc(Cl)c2ncc(-c3cccc(C(F)(F)F)n3)cc21)N1CC(F)C1", "note": "[Example 247, 2-[3-Chloro-6-[6-(trifluoromethyl)-2-pyridyl]pyrrolo[3,2-b]pyridin-1-yl]-1-(3-fluoroazetidin-1-yl)ethanone]", "IC50": 316}
{"smiles": "O=C(Cn1ccc2ncc(-c3cc(F)c(F)c(F)c3)cc21)NC1CC1", "note": "[Example 248, N-Cyclopropyl-2-[6-(3,4,5-trifluorophenyl)pyrrolo[3,2-b]pyridin-1-yl]acetamide]", "IC50": 63.1}
{"smiles": "O=C(Cn1ccc2ncc(-c3ccc(F)c(F)c3F)cc21)NC1CC1", "note": "[Example 249, N-Cyclopropyl-2-[6-(2,3,4-trifluorophenyl)pyrrolo[3,2-b]pyridin-1-yl]acetamide]", "IC50": 79.4}
{"smiles": "O=C(Cn1ccc2ncc(-c3cccc(C(F)F)c3)cc21)NC1CC1", "note": "[Example 250, N-Cyclopropyl-2-[6-[3-(difluoromethyl)phenyl]pyrrolo[3,2-b]pyridin-1-yl]acetamide]", "IC50": 251}
{"smiles": "O=C(Cn1ccc2ncc(-c3ccc(F)cc3)cc21)NCc1ccccc1", "note": "[Example 251, N-Benzyl-2-[6-(4-fluorophenyl)pyrrolo[3,2-b]pyridin-1-yl]acetamide]", "IC50": 50.1}
{"smiles": "O=C(Cn1ccc2ncc(-c3ccc(F)cc3)cc21)NCCO", "note": "[Example 253, 2-[6-(4-Fluorophenyl)pyrrolo[3,2-b]pyridin-1-yl]-N-(2-hydroxyethyl)acetamide]", "IC50": 79.4}
{"smiles": "COCCNC(=O)Cn1ccc2ncc(-c3ccc(F)cc3)cc21", "note": "[Example 254, 2-[6-(4-Fluorophenyl)pyrrolo[3,2-b]pyridin-1-yl]-N-(2-methoxyethyl)acetamide]", "IC50": 1260}
{"smiles": "O=C(Cn1ccc2ncc(-c3cccc(C(F)(F)F)c3F)cc21)N1CC(F)(F)C1", "note": "[Example 255, 1-(3,3-Difluoroazetidin-1-yl)-2-[6-[2-fluoro-3-(trifluoromethyl)phenyl]pyrrolo[3,2-b]pyridin-1-yl]ethanone trifluoroacetate salt]", "IC50": 3980}
{"smiles": "O=C(Cn1ccc2ncc(-c3cccc(F)c3)cc21)N1CC(F)(F)C1", "note": "[Example 256, 1-(3,3-Difluoroazetidin-1-yl)-2-[6-(3-fluorophenyl)pyrrolo[3,2-b]pyridin-1-yl]ethanone trifluoroacetate salt]", "IC50": 79.4}
